{"source": "patent US20230085307A1", "about": "“PYRIDAZINONE COMPOUND AND HERBICIDE” (NISSAN CHEMICAL CORPORATION, priority 2019, published 2023)", "key": {"barnyard grass [1]": {"tested_on": "barnyard grass", "experiment": "Test Example 5: herbicidal effect by foliage application, plastic box (Table 20, symbol H)", "assay_type": "in vivo, barnyard grass (Echinochloa crus-galli)", "details": "foliage application, 320 g/ha, evaluated three weeks after application", "how_it_was_run": "(§1)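 Plants were sown into sterilized diluvial soil under about 1.5 cm cover and kept in a greenhouse at 25° C. to 30° C. Fourteen days on, foliage received an even spray of the diluted emulsion. Herbicidal or crop effect was judged three weeks afterwards.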"}, "wild oat [2]": {"tested_on": "wild oat", "experiment": "Test Example 4: herbicidal effect by soil treatment (Table 19, symbol I)", "assay_type": "in vivo, wild oat (Avena fatua)", "details": "amount of applied herbicide 320 g/ha", "how_it_was_run": "(§2)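 Pre-emergence style soil spray: seeds under ~1.5 cm sterilized diluvial soil received a uniform coat of emulsion diluted to the predetermined herbicide amount. Greenhouse 25–30° C; readout at week three on previously defined criteria.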"}, "Chinese sprangletop": {"tested_on": "Chinese sprangletop", "experiment": "Test Example 3: herbicidal effect by foliage application, Wagner pot (Table 18, symbol D)", "assay_type": "in vivo, chinese sprangletop (Leptochloa chinensis)", "details": "amount of applied herbicide 320 g/ha", "how_it_was_run": "(§3)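 Plants were sown in alluvial soil held under 0.1–0.5 cm standing water and grown 14 days in a greenhouse at 25–30 °C. An emulsifiable formulation, water-diluted to the set dose, was then sprayed onto the foliage, and effects were scored three weeks later using previously defined criteria.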"}, "lambsquarters [3]": {"tested_on": "lambsquarters", "experiment": "Test Example 4: herbicidal effect by soil treatment (Table 19, symbol O)", "assay_type": "in vivo, lambsquarters (Chenopodium album)", "details": "amount of applied herbicide 320 g/ha", "how_it_was_run": "as §2"}, "southern crabgrass [4]": {"tested_on": "southern crabgrass", "experiment": "Test Example 4: herbicidal effect by soil treatment (Table 19, symbol F)", "assay_type": "in vivo, southern crabgrass (Digitaria ciliaris)", "details": "amount of applied herbicide 320 g/ha", "how_it_was_run": "as §2"}, "redroot pigweed [5]": {"tested_on": "redroot pigweed", "experiment": "Test Example 5: herbicidal effect by foliage application, plastic box (Table 20, symbol N)", "assay_type": "in vivo, redroot pigweed (Amaranthus retroflexus)", "details": "foliage application, 320 g/ha, evaluated three weeks after application", "how_it_was_run": "as §1"}, "wild oat [6]": {"tested_on": "wild oat", "experiment": "Test Example 5: herbicidal effect by foliage application, plastic box (Table 20, symbol I)", "assay_type": "in vivo, wild oat (Avena fatua)", "details": "foliage application, 320 g/ha, evaluated three weeks after application", "how_it_was_run": "as §1"}, "false cleavers": {"tested_on": "false cleavers", "experiment": "Test Example 4: herbicidal effect by soil treatment (Table 19, symbol Q)", "assay_type": "in vivo, false cleavers (Galium spurium)", "details": "amount of applied herbicide 320 g/ha", "how_it_was_run": "as §2"}, "green foxtail [7]": {"tested_on": "green foxtail", "experiment": "Test Example 4: herbicidal effect by soil treatment (Table 19, symbol G)", "assay_type": "in vivo, green foxtail (Setaria viridis)", "details": "amount of applied herbicide 320 g/ha", "how_it_was_run": "as §2"}, "redroot pigweed [8]": {"tested_on": "redroot pigweed", "experiment": "Test Example 4: herbicidal effect by soil treatment (Table 19, symbol N)", "assay_type": "in vivo, redroot pigweed (Amaranthus retroflexus)", "details": "amount of applied herbicide 320 g/ha", "how_it_was_run": "as §2"}, "persian speedwell [9]": {"tested_on": "persian speedwell", "experiment": "Test Example 4: herbicidal effect by soil treatment (Table 19, symbol R)", "assay_type": "in vivo, Persian speedwell (Veronica persica)", "details": "amount of applied herbicide 320 g/ha", "how_it_was_run": "as §2"}, "persian speedwell [10]": {"tested_on": "persian speedwell", "experiment": "Test Example 5: herbicidal effect by foliage application, plastic box (Table 20, symbol R)", "assay_type": "in vivo, Persian speedwell (Veronica persica)", "details": "foliage application, 320 g/ha, evaluated three weeks after application", "how_it_was_run": "as §1"}, "barnyard grass [11]": {"tested_on": "barnyard grass", "experiment": "Test Example 4: herbicidal effect by soil treatment (Table 19, symbol H)", "assay_type": "in vivo, barnyard grass (Echinochloa crus-galli)", "details": "amount of applied herbicide 320 g/ha", "how_it_was_run": "as §2"}, "chickweed [12]": {"tested_on": "chickweed", "experiment": "Test Example 4: herbicidal effect by soil treatment (Table 19, symbol P)", "assay_type": "in vivo, common chickweed (Stellaria media)", "details": "amount of applied herbicide 320 g/ha", "how_it_was_run": "as §2"}, "windgrass [13]": {"tested_on": "windgrass", "experiment": "Test Example 4: herbicidal effect by soil treatment (Table 19, symbol L)", "assay_type": "in vivo, windgrass (Apera spica-venti)", "details": "amount of applied herbicide 320 g/ha", "how_it_was_run": "as §2"}, "lambsquarters [14]": {"tested_on": "lambsquarters", "experiment": "Test Example 5: herbicidal effect by foliage application, plastic box (Table 20, symbol O)", "assay_type": "in vivo, lambsquarters (Chenopodium album)", "details": "foliage application, 320 g/ha, evaluated three weeks after application", "how_it_was_run": "as §1"}, "windgrass [15]": {"tested_on": "windgrass", "experiment": "Test Example 5: herbicidal effect by foliage application, plastic box (Table 20, symbol L)", "assay_type": "in vivo, windgrass (Apera spica-venti)", "details": "foliage application, 320 g/ha, evaluated three weeks after application", "how_it_was_run": "as §1"}, "barnyard grass [16]": {"tested_on": "barnyard grass", "experiment": "Test Example 3: herbicidal effect by foliage application, Wagner pot (Table 18, symbol H)", "assay_type": "in vivo, barnyard grass (Echinochloa crus-galli)", "details": "amount of applied herbicide 320 g/ha", "how_it_was_run": "as §3"}, "velvetleaf [17]": {"tested_on": "velvetleaf", "experiment": "Test Example 5: herbicidal effect by foliage application, plastic box (Table 20, symbol M)", "assay_type": "in vivo, velvetleaf (Abutilon theophrasti)", "details": "foliage application, 320 g/ha, evaluated three weeks after application", "how_it_was_run": "as §1"}, "chickweed [18]": {"tested_on": "chickweed", "experiment": "Test Example 5: herbicidal effect by foliage application, plastic box (Table 20, symbol P)", "assay_type": "in vivo, common chickweed (Stellaria media)", "details": "foliage application, 320 g/ha, evaluated three weeks after application", "how_it_was_run": "as §1"}, "blackgrass [19]": {"tested_on": "blackgrass", "experiment": "Test Example 4: herbicidal effect by soil treatment (Table 19, symbol J)", "assay_type": "in vivo, blackgrass (Alopecurus myosuroides)", "details": "amount of applied herbicide 320 g/ha", "how_it_was_run": "as §2"}, "southern crabgrass [20]": {"tested_on": "southern crabgrass", "experiment": "Test Example 5: herbicidal effect by foliage application, plastic box (Table 20, symbol F)", "assay_type": "in vivo, southern crabgrass (Digitaria ciliaris)", "details": "foliage application, 320 g/ha, evaluated three weeks after application", "how_it_was_run": "as §1"}, "green foxtail [21]": {"tested_on": "green foxtail", "experiment": "Test Example 5: herbicidal effect by foliage application, plastic box (Table 20, symbol G)", "assay_type": "in vivo, green foxtail (Setaria viridis)", "details": "foliage application, 320 g/ha, evaluated three weeks after application", "how_it_was_run": "as §1"}, "rice flat sedge": {"tested_on": "rice flat sedge", "experiment": "Test Example 3: herbicidal effect by foliage application, Wagner pot (Table 18, symbol E)", "assay_type": "in vivo, rice flat sedge (Cyperus iria)", "details": "amount of applied herbicide 320 g/ha", "how_it_was_run": "as §3"}, "Italian ryegrass [22]": {"tested_on": "Italian ryegrass", "experiment": "Test Example 5: herbicidal effect by foliage application, plastic box (Table 20, symbol K)", "assay_type": "in vivo, Italian ryegrass (Lolium multiflorum)", "details": "foliage application, 320 g/ha, evaluated three weeks after application", "how_it_was_run": "as §1"}, "velvetleaf [23]": {"tested_on": "velvetleaf", "experiment": "Test Example 4: herbicidal effect by soil treatment (Table 19, symbol M)", "assay_type": "in vivo, velvetleaf (Abutilon theophrasti)", "details": "amount of applied herbicide 320 g/ha", "how_it_was_run": "as §2"}, "blackgrass [24]": {"tested_on": "blackgrass", "experiment": "Test Example 5: herbicidal effect by foliage application, plastic box (Table 20, symbol J)", "assay_type": "in vivo, blackgrass (Alopecurus myosuroides)", "details": "foliage application, 320 g/ha, evaluated three weeks after application", "how_it_was_run": "as §1"}, "Italian ryegrass [25]": {"tested_on": "Italian ryegrass", "experiment": "Test Example 4: herbicidal effect by soil treatment (Table 19, symbol K)", "assay_type": "in vivo, Italian ryegrass (Lolium multiflorum)", "details": "amount of applied herbicide 320 g/ha", "how_it_was_run": "as §2"}}, "data": [{"smiles": "CCSc1cccc(-c2sc3ccc(F)cc3c2-c2c(O)c(C)nn(C)c2=O)c1", "note": "[2-242]", "values": [{"measurement": "herbicidal effect on H: barnyard grass (criteria 0-5)", "setting": "barnyard grass [1]", "result": "1 (Herbicidal rate of 5% or more and less than 20%)"}, {"measurement": "herbicidal effect on I: wild oat", "setting": "wild oat [2]", "result": "0 (Herbicidal rate of 5% or less (almost no effect))"}, {"measurement": "herbicidal effect on D: Chinese sprangletop", "setting": "Chinese sprangletop", "result": "0 (Herbicidal rate of 5% or less (almost no effect))"}, {"measurement": "herbicidal effect on O: lambsquarters", "setting": "lambsquarters [3]", "result": "1 (Herbicidal rate of 5% or more and less than 20%)"}, {"measurement": "herbicidal effect on F: southern crabgrass", "setting": "southern crabgrass [4]", "result": "0 (Herbicidal rate of 5% or less (almost no effect))"}, {"measurement": "herbicidal effect on N: redroot pigweed (criteria 0-5)", "setting": "redroot pigweed [5]", "result": "4 (Herbicidal rate of 70% or more and less than 90%)"}, {"measurement": "herbicidal effect on I: wild oat (criteria 0-5)", "setting": "wild oat [6]", "result": "4 (Herbicidal rate of 70% or more and less than 90%)"}, {"measurement": "herbicidal effect on Q: false cleavers", "setting": "false cleavers", "result": "0 (Herbicidal rate of 5% or less (almost no effect))"}, {"measurement": "herbicidal effect on G: green foxtail", "setting": "green foxtail [7]", "result": "0 (Herbicidal rate of 5% or less (almost no effect))"}, {"measurement": "herbicidal effect on N: redroot pigweed", "setting": "redroot pigweed [8]", "result": "2 (Herbicidal rate of 20% or more and less than 40%)"}, {"measurement": "herbicidal effect on R: persian speedwell", "setting": "persian speedwell [9]", "result": "4 (Herbicidal rate of 70% or more and less than 90%)"}, {"measurement": "herbicidal effect on R: persian speedwell (criteria 0-5)", "setting": "persian speedwell [10]", "result": "5 (Herbicidal rate of 90% or more (almost completely withered))"}, {"measurement": "herbicidal effect on H: barnyard grass", "setting": "barnyard grass [11]", "result": "0 (Herbicidal rate of 5% or less (almost no effect))"}, {"measurement": "herbicidal effect on P: chickweed", "setting": "chickweed [12]", "result": "1 (Herbicidal rate of 5% or more and less than 20%)"}, {"measurement": "herbicidal effect on L: windgrass", "setting": "windgrass [13]", "result": "0 (Herbicidal rate of 5% or less (almost no effect))"}, {"measurement": "herbicidal effect on O: lambsquarters (criteria 0-5)", "setting": "lambsquarters [14]", "result": "3 (Herbicidal rate of 40% or more and less than 70%)"}, {"measurement": "herbicidal effect on L: windgrass (criteria 0-5)", "setting": "windgrass [15]", "result": "4 (Herbicidal rate of 70% or more and less than 90%)"}, {"measurement": "herbicidal effect on H: barnyard grass", "setting": "barnyard grass [16]", "result": "3 (Herbicidal rate of 40% or more and less than 70%)"}, {"measurement": "herbicidal effect on M: velvetleaf (criteria 0-5)", "setting": "velvetleaf [17]", "result": "3 (Herbicidal rate of 40% or more and less than 70%)"}, {"measurement": "herbicidal effect on P: chickweed (criteria 0-5)", "setting": "chickweed [18]", "result": "5 (Herbicidal rate of 90% or more (almost completely withered))"}, {"measurement": "herbicidal effect on J: blackgrass", "setting": "blackgrass [19]", "result": "0 (Herbicidal rate of 5% or less (almost no effect))"}, {"measurement": "herbicidal effect on F: southern crabgrass (criteria 0-5)", "setting": "southern crabgrass [20]", "result": "3 (Herbicidal rate of 40% or more and less than 70%)"}, {"measurement": "herbicidal effect on G: green foxtail (criteria 0-5)", "setting": "green foxtail [21]", "result": "3 (Herbicidal rate of 40% or more and less than 70%)"}, {"measurement": "herbicidal effect on E: rice flat sedge", "setting": "rice flat sedge", "result": "2 (Herbicidal rate of 20% or more and less than 40%)"}, {"measurement": "herbicidal effect on K: Italian ryegrass (criteria 0-5)", "setting": "Italian ryegrass [22]", "result": "1 (Herbicidal rate of 5% or more and less than 20%)"}, {"measurement": "herbicidal effect on M: velvetleaf", "setting": "velvetleaf [23]", "result": "0 (Herbicidal rate of 5% or less (almost no effect))"}, {"measurement": "herbicidal effect on J: blackgrass (criteria 0-5)", "setting": "blackgrass [24]", "result": "0 (Herbicidal rate of 5% or less (almost no effect))"}, {"measurement": "herbicidal effect on K: Italian ryegrass", "setting": "Italian ryegrass [25]", "result": "0 (Herbicidal rate of 5% or less (almost no effect))"}]}]}
